Common to all, as to assay: NCI-60 cell line screen, 48 h
Experiment [1] deals with LOX IMVI melanoma.
Experiment [2] deals with OVCAR-8 ovarian.
In experiment [3] the test system is SR leukemia.
For experiment [4], the system named is NCI-H522 lung.
The test system of experiment [5] is SN12C renal.
For experiment [6], the system named is KM12 colon.
Experiment [7] deals with HL-60(TB) leukemia.
For experiment [8], the system named is IGROV1 ovarian.
Experiment [9] has as its system PC-3 prostate.
In experiment [10] the test system is EKVX NSCLC.

Structures are written as SMILES.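 Cultured in 96-well plates, cells were exposed to test compound for 48 hours across five concentrations. TGI: concentration producing complete growth inhibition.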

For the compound `O=C1c2ccccc2C(=O)N1Cc1ccccc1-c1c2nc(c(-c3ccccc3CN3C(=O)c4ccccc4C3=O)c3ccc([nH]3)c(-c3ccccc3CN3C(=O)c4ccccc4C3=O)c3nc(c(-c4ccccc4CN4C(=O)c5ccccc5C4=O)c4ccc1[nH]4)C=C3)C=C2`, the TGI in experiment [1], in [2], in [3], in experiment [4], in [5] and in [6] was > 100 µM each time. Also, the TGI in experiment [7] and in [8] was > 100 µM each time.
On to `NC1=NS(=O)(=O)Nc2nc(-c3ccc(Cl)cc3)c(-c3ccc(Cl)cc3)nc21`, for which the TGI in [1], in [2], in experiment [3], in experiment [4], in [5] and in [6] was > 100 µM in each case. Besides, the TGI in experiment [7] and in experiment [8] was > 100 µM each time.
As to `O=C1CCCCC(=O)OC2(CCCCC2=O)CC1` (centres undefined), the TGI in experiment [2], in [3], in experiment [4], in [9], in [5] and in experiment [6] was > 100 µM each time. The TGI in experiment [8] is > 100 µM.
With `CC(=O)O[C@H]1C#C/C=C\C#CC[C@@H]2C(=O)N[C@@H]12`, the TGI is > 50.2 µM in experiment [1]; 73.1 µM in [2]; > 100 µM in [4]; > 100 µM in experiment [10]; > 100 µM in experiment [9]; > 80.4 µM in [5]. Further, the TGI in [6] is > 100 µM; in [7], 33.5 µM; in [8], > 100 µM.
Turning to `CC1=COC(C)(C=C(C#N)C#N)CC1` (centres undefined), the TGI was > 100 µM in experiment [2]; > 100 µM in [3]; > 100 µM in experiment [10]; > 100 µM in [5]; > 100 µM in [6]; 50.1 µM in experiment [7]. In addition, in experiment [8], the TGI is > 100 µM.
On to `CCOP(=O)(OCC)c1c(C(=O)OC)cc(=O)[nH]c1-c1ccc(C)cc1`, for which the TGI in experiment [1] was > 100 µM; in experiment [2] it was > 47.1 µM; in experiment [3], 11.5 µM; in [4] it was 3.03 µM; in experiment [10] it was 17 µM; in experiment [9] it was 34.2 µM. Further, the TGI is > 57 µM in experiment [5], 33.6 µM in experiment [6] and 20.6 µM in experiment [8].
Turning to `NC1=NS(=O)(=O)Nc2nc(-c3ccc([N+](=O)[O-])cc3)[nH]c21`, the TGI in [1], in experiment [2], in experiment [3], in experiment [4], in [5] and in [6] was > 100 µM throughout. The TGI in experiment [7] and in experiment [8] was > 100 µM throughout.
In the case of `NC(=O)NNC(=O)c1nc[nH]c1[N+](=O)[O-]`, the TGI in [1], in experiment [2], in [4], in [10], in [9] and in [5] was > 100 µM in each case. In [8], the TGI was > 100 µM.
In the case of `Cc1cc(C)[n+](CCOc2ccc(/C(=C(/Cl)c3ccccc3)c3ccccc3)cc2)c(C)c1`, the TGI in [1] came to 2.14 µM; in experiment [2], 8.41 µM; in [3] it was 4.32 µM; in experiment [4] it was 2.62 µM; in experiment [10], 13.2 µM; in [5], 6.03 µM. Besides, the values for the TGI in experiment [6], in experiment [7] and in [8] were 2.01 µM, 3.31 µM and 2.33 µM, respectively.
Turning to `O=C1NC(N/N=C/C(O)C(O)C(O)CO)=N/C1=C\c1ccco1` (centres undefined), the TGI in experiment [1], in experiment [2], in experiment [4], in experiment [10], in experiment [5] and in experiment [6] was > 100 µM throughout. The TGI in experiment [7] and in experiment [8] was > 100 µM each time.
In the case of `NC1=NS(=O)(=O)Nc2nc(-c3ccc([N+](=O)[O-])o3)[nH]c21`, the TGI is 29.4 µM in [1]; 89.3 µM in [2]; 33.4 µM in experiment [4]; 36.4 µM in experiment [5]; 36.1 µM in [6]; 4.93 µM in experiment [7]. This compound also had a TGI in experiment [8] of 31.5 µM.
Regarding `O=c1nc2c(c(-c3ccccc3Cl)[nH]1)COC/C2=C\c1ccccc1Cl`, the TGI in experiment [1] is > 100 µM; in experiment [2] it was > 100 µM; in experiment [10], 97.4 µM; in experiment [9], > 100 µM; in experiment [5], > 100 µM; in [6], > 100 µM. Moreover, the TGI in experiment [7] and in experiment [8] was > 100 µM each time.
Consider `CC(=O)OC1CC2C(C)(C)OC(=O)CC(OC(C)=O)[C@]2(C)C2CCC3(C)C(=CCC3[C@H]3COC(=O)C3)[C@]12C` (some centres undefined), for which the TGI was > 100 µM in experiment [1]; > 100 µM in experiment [2]; 78.1 µM in experiment [3]; > 100 µM in [4]; > 100 µM in [10]; > 100 µM in experiment [5]. Moreover, the TGI in [6], in experiment [7] and in [8] was > 100 µM throughout.
With `COc1cc(Nc2c3ccccc3nc3ccccc23)ccc1NS(C)(=O)=O`, the TGI was > 100 µM in experiment [1]; 17.2 µM in [2]; 15.2 µM in experiment [3]; 12.9 µM in experiment [4]; 23.1 µM in [10]; 9.32 µM in experiment [5]. In addition, the TGI in experiment [7] was found to be 30.1 µM; in [8] it was 36.3 µM.
On to `O=c1[nH]nc(Cc2ccc([N+](=O)[O-])cc2)n1CCO`, for which the TGI in [1], in experiment [2], in experiment [4], in experiment [10], in experiment [9] and in experiment [5] was > 100 µM in each case. The TGI in experiment [6], in experiment [7] and in experiment [8] was > 100 µM each time.
On to `CCN1C(=O)C(=C/C=C/c2ccc([N+](=O)[O-])cc2)C(=O)N(CC)C1=S`, for which the TGI was found to be 33.2 µM in [1]; 39.7 µM in [2]; 62.7 µM in [10]; 34.6 µM in [9]; 57.3 µM in experiment [5]; 60.7 µM in experiment [6]. For the same compound, the TGI in experiment [7] is > 100 µM; in experiment [8] it was 32.6 µM.

(Values after PubChem BioAssay (NCI).)
